These results are taken from patent publication EP0498290B1, “Pyridobenzodiazepines, dipyrido [3,2-b:2',3'-e] [1,4]diazepines and their use in the prevention or treatment of HIV infection” (BOEHRINGER INGELHEIM PHARMACEUTICALS INC., priority 1991, dated 1992).

Values after ≈ are worked out from the molar mass of the structure shown. Read-outs that look alike come from different tables or passages of the source.

One data set concerns the target T1, HIV-1 RT (Human immunodeficiency virus type 1 group M subtype B, UniProt P03367).
T1 construct: Reverse transcriptase enzyme from the LAV strain of Human Immunodeficiency Virus (HIV-1) (1) was isolated from the bacterial strain JM109; made in house; host or cells: E. coli JM109, clone pBRTprt1+ in vector pIBI21 (lac promoter, IPTG induction)
In words: Reverse Transcriptase (RT) Assay: RNA-dependent DNA polymerase activity, poly r(C)/oligo d(G) template, 3H-dGTP. The format is biochemical. The text has this: Utilizing the Reverse Transcriptase (RT) Assay described below, compounds can be tested for their ability to inhibit the RNA-dependent DNA polymerase activity of HIV-1 RT. Certain specific compounds described in the Examples which appear below, were so tested.
Among the enzymes for which Human Immunodeficiency Virus (HIV-1) encodes is a reverse transcriptase (1), so-named because it transcribes a DNA copy from an RNA template. This activity can be quantitatively measured in a cell-free enzyme assay, which has been previously described (2), and is based upon the observation that reverse transcriptase is able to use a synthetic template [poly r(C) primed with oligo d(G)] to transcribe a radio-labelled, acid-precipitable DNA strand utilizing ^3H-dGTP as a substrate.
Reverse transcriptase enzyme from the LAV strain of Human Immunodeficiency Virus (HIV-1) (1) was isolated from the bacterial strain JM109 (3) expressing the DNA clone pBRTprt1+ (2) which is under the control of the lac promotor in the expression vector pIBI21 (4). An overnight culture grown in 2XYT medium (37°C, 225 rpm) (5) supplemented with 100 µg/ml ampicillin for positive selection is inoculated at a 1:40 dilution into M9 medium supplemented with 10µg/ml thiamine, 0.5% casamino acids, and 50 µg/ml ampicillin (5). The culture is incubated (37°C, 225 rpm) until it reaches an OD540 of 0.3-0.4. At that time the repressor inhibitor IPTG (isopropyl β-D-thiogalactopyranoside) is added to 0.5mM, and the mixture is incubated for 2 additional hours. Bacteria are pelleted, resuspended in a 50mM Tris, 0.6mM EDTA, 0.375M NaCl buffer and digested by the addition of lysozyme (1mg/ml) for 30 minutes on ice. The cells are lysed by the addition of 0.2% NP-40 and brought to 1M NaCl.
After removal of the insoluble debris by centrifugation, the protein is precipitated by the addition of 3 volumes of saturated aqueous ammonium sulfate. The enzyme is pelleted, resuspended in RT buffer (50mM Tris pH 7.5, 1mM EDTA, 5mM DTT, 0.1% NP-40, 0.1M NaCl, and 50% glycerol), and stored at -70°C for further use.
b) Composition of 2X concentrated stock reaction mixture used in testing of compounds 1 to 15
Composition of 2X concentrated stock reaction mixture used in testing compounds 16 and 17
The 2X concentrated stock reaction mixture is aliquoted and stored at - 20°C. The mixture is stable and thawed for use in each assay. This enzyme assay has been adapted to a 96 well microtiter plate system, and has been previously described (6). Tris buffer (50 mM, pH 7.4), vehicle (solvent diluted to match the compound dilution), or compounds in vehicle are dispensed into 96-well microtiter plates (10µl/well; 3 wells/compound). The HIV-1 RT enzyme is thawed, diluted in 50mM Tris pH 7.8 (50mM Tris pH 7.4 in the case of compounds 16 and 17) so that fifteen µl of diluted enzyme contain 0.001 Unit (one unit is that amount of enzyme to transform 1 micromole of substrate per minute at 25°C), and fifteen µl are dispensed per well. Twenty µl of 0.12-0.5M EDTA are added to the first three wells of the microtiter plate. EDTA chelates the Mg^++ present and prevents reverse transcription. This group serves as background polymerization which is subtracted from all other groups. Twenty-five ul of the 2X reaction mixture are added to all wells and the assay is allowed to incubate at room temperature for 60 minutes. The assay is terminated by precipitating the DNA in each well with 50µl of 10% trichloracetic acid (TCA) (10% w/v) in sodium pyrophosphate (1% w/v). The microtiter plate is incubated for 15 minutes at 4°C and the precipitate is fixed onto #30 glass fiber paper (Schleicher & Schuell) using a Skatron semi-automatic harvester. The filters are then washed with additional TCA (5%) containing sodium pyrophosphate (1%), rinsed with aqueous ethanol (70%), dried, and transferred to scintillation vials (6). […]

The next data set in a line: in vitro. The class given is cell-based. As to conditions: human, c8166 cells. The method, then:
In order to roughly assess the cytotoxicity of the compounds provided by the invention, several such compounds were tested in the MTT Cellular Cytotoxicity Assay described below. Compounds having a relatively high EC50 are preferred.
The MTT [3-(4,5-dimethylthiazol-2-yl)-2,5 diphenyl tetrazolium bromide) assay is based on cleavage of tetrazolium bromide by metabolically active cells, resulting in a highly quantitative blue color. This assay has been previously described (1) but has been optimized for the purposes of the testing reported herein.
The c8166 cell line (2), an established human lymphoma suspension cell line grown in RPMI 1640 supplemented with 10% fetal bovine serum, is used as the target cell line in the assay. Cells (100µl) are plated in microtest plate wells at a concentration of 10^5 cells per ml in the presence of varying concentrations of inhibitor. The cells are incubated at 37°C in a humidified CO2 incubator. Five days later, 20µl of MTT (5mg/ml in RPMI 1640, sonicated, 0.2 micron filtered, and stored at 4°C) is added to each well. After 4 hours additional incubation at 37°C, 60µl of Triton-X is added to each well and thoroughly mixed to aid the solubilization of the crystals. Absolute ethanol (5µl) is added to each well and the resulting mixture is incubated for 30 minutes at 60°C and immediately read on a plate reader (Dynatech) at a wavelength of 570nm. […]

In data set [1] the test system is HTLV-IIIB strain of HIV-1. In words: Human T-Cell Culture Assay (syncytia formation in c8166 cells). The format is cell-based. As to conditions: Human immunodeficiency virus 1, IIIB, 96 h, syncytia read four days after virus challenge. The method, then:
In order to confirm that compounds which are active in the RT Assay also have the ability to inhibit HIV replication in a living system, compounds according to the invention were also tested in the human T-Cell Culture Assay described below.
Assay Theory: Formation of syncytia is a feature of in vitro cultures of CD4+ T-cells infected with HIV-1. In this assay, T-cells are treated with a putative replication inhibiting compound and then infected with HIV-1. After incubation, the culture is checked for the formation of syncytia. The absence or reduction in the number of syncytia is used as a measure of the test compound's ability to inhibit HIV replication.
Assay Method: The target cells, designated c8166, are a subclone of human lymphoma cells of T-cell origin and are established at an initial density of 5x10^4 per 100 ul in RPMI 1640 (+ 10% fetal bovine serum) culture medium in 96 well flat bottom plates. A selected amount of test compound, dissolved in DMSO, is included. After 24 hours, 50-100 TCID50's (the dose that results in induced effect in 50% of test cultures) of the HTLV-IIIB strain of HIV-1 (2) are inoculated into each culture. Control cultures receive compound or virus only. Four days after virus challenge, cultures are visually examined for the frequency and distribution of virus-induced giant cell syncytia. The percent inhibition by the test compound is determined by comparison with control values. Confirmation of the presence or absence of virus replication is accomplished by harvesting the cell free culture fluids from all experimental groups to determine the presence or absence of infectious progeny through the induction of syncytia formation in secondary human T-cell cultures after 3 days.

The mark [2] stands for this setting: 10 µg/ml, reaction mixture for compounds 1 to 15 (Tris pH 7.8, KCl, human serum albumin, 6µM 3H-dGTP in 2X mix), read-out: RT Assay % inhibition @ 10 µg/ml.
Setting [3] is: pH 7.4, read-out: RT Assay % inhibition @ 10 µg/ml.

“2.4-Dimethyl-11-ethyl-6-pyrrolidino-11H-dipyrido[3,2-b:2',3'-e][1,4]diazepine [Example 10]”: the “RT Assay % inhibition @ 10 µg/ml” value at HIV-1 RT (10 µg/ml, reaction mixture for compounds 1 to 15 (Tris pH 7.8, KCl, human serum albumin, 6µM 3H-dGTP in 2X mix)) amounted to 91%.

In the data set “in vitro”, `Cc1ccnc2c1N=C(Cl)c1cccnc1N2C1CC1` [Example 1, 6-Chloro-11-cyclopropyl-4-methyl-11H-dipyrido[3,2-b:2',3'-e][1,4]diazepine] showed a CC50 at 120 h above 5 µg/mL. Further, the inhibition at 3 µg/mL in data set [1] is above 90%.

In “in vitro”, `Cc1ccnc2c1N=C(C#N)c1cccnc1N2C1CC1` [Example 2, 6-Cyano-11-cyclopropyl-4-methyl-11H-dipyrido[3,2-b:2',3'-e][1,4]diazepine] showed a CC50 at 120 h of 28 µg/mL (≈ 102 µM). Further, the inhibition at 3 µg/mL in data set [1] was above 50%.

`CCN1c2ncccc2C(C#N)=Nc2c(C)cc(C)nc21` [Example 3, 6-Cyano-2,4-dimethyl-11-ethyl-11H-dipyrido[3,2-b:2',3'-e][1,4]diazepine] displayed an inhibition at 3 µg/mL in data set [1] above 50%.

Consider `CCOC(=O)CSC1=Nc2c(C)ccnc2N(C2CC2)c2ncccc21` [Example 5], for which the inhibition at 10 µg/mL on HIV-1 RT (setting [2]) came out at 98%.

Consider `Cc1ccnc2c1N=C(n1ccnc1)c1cccnc1N2C1CC1` [Example 9], for which the inhibition at 10 µg/mL at HIV-1 RT (setting [2]) amounted to 97%.

With `Cc1ccnc2c1N=C(S(C)(=O)=O)c1cccnc1N2C1CC1` [Example 14, 11-Cyclopropyl-4-methyl-6-methylsulfonyl-dipyrido[3,2-b:2',3'-e][1,4]diazepine], the inhibition at 10 µg/mL at HIV-1 RT (setting [2]) came to 100%.

Regarding `CCOC1=Nc2c(C)cccc2Nc2ncccc21` [Example 16, 5-Ethoxy-7-methyl-11H-pyridol[2,3-b][1,5]benzodiazepine], the inhibition at 10 µg/mL on HIV-1 RT (setting [3]) is 59%.

As for `COC1=Nc2ccccc2N(C)c2ncccc21` [Example 17, 5-Methoxy-11-methyl-11H-pyrido[2,3-b][1,5]benzodiazepine], the inhibition at 10 µg/mL at HIV-1 RT (setting [3]) came out at 82%.
